Laboratory results: patent US20230104658A1, “METHODS OF INCREASING PROGENITOR CELL PRODUCTION” (Janssen Pharmaceutica NV, priority 2021, published 2023)
Square brackets hold non-standard residues; d marks the D form. 2Nal = N[C@@H](Cc1ccc2ccccc2c1)C(=O)O; Sar = CNCC(=O)O

Experiments:
Short-term HSCs = experiment: Flow cytometry of femoral bone marrow, total count/femur: short-term HSCs (Example 1); assay type: in vivo, mice; details: after treatment for 13 days
Description: (§1) In this study, normal male C57BL/6 mice were subcutaneously injected with RWJ-800088 (TPOm) at 300 μg/kg (Day 0). […]
(§2) […] After, the cell pellet was resuspended in 1X ACK lysing buffer (Lonza, 10-548E) to lyse red blood cells. The suspension was filtered through 70 μm nylon mesh and collected for further analysis.
(§3) The bone marrow was further processed to isolate single cell populations. Then, the cells from the bone marrow and blood were subjected to flow cytometry to identify various population, including endothelial cells (EC), EPC, arterial EC, sinusoidal EC, lineage-, c-kit+, Sca-1+(LSK), megakaryocyte progenitors, short-term hematopoietic stem cell (ST-HSC), long-term HSC (LT-HSC), mesenchymal stern cell (MSC), LepR+c-mpl+MSC. The portion of blood sample was also subjected to clonogenic assay to validate the EPC population.
(§4) The cells isolated from the bone marrow and peripheral blood were incubated with
(§5) Live/Dead Zombie dye (Biolegend) in phosphate-buffered saline (PBS) at room temperature for 15 minutes. After, primary antibodies were diluted in 2% fetal bovine serum (FBS)-PBS solution and incubated with cells on ice for 30 minutes. Cells were washed with 2% FBS-PBS solution and incubated with secondary antibodies for 30 minutes. Cells were washed again and acquired on Cytek Aurora spectral cytometer. Analysis was done through FlowJo (Tree Star) software.

[1] = test system: Endothelial progenitor cells (EPCs); experiment: Flow cytometry of bone marrow ten days after treatment: EPCs (Example 2); assay type: in vivo, mice; details: 10 days after 300 μg/kg s.c.; percentage of CD45- cells
Description: (§6) In this study, male C57BL/6 mice (8-10 weeks old) from Jackson Laboratory (Bar Harbor, Me.) were subcutaneously injected with RWJ-800088 (TPOm) at 300 μg/kg or PBS (vehicle). At day 10 after RWJ-800088 injection, the mice were sacrificed to harvest bone marrow and peripheral blood. Another set of groups was intraperitoneally injected with 5 mg/kg of plerixafor (also named AMD3100) from Sigma-Aldrich 1 hour before the sacrifice. The bone marrow was further processed to isolate single cell populations. Then, the cells from bone marrow and blood were subjected to flow cytometry to identify various populations. Bone Marrow Cell Collection
(§7) Tibias were flushed and digested with 1 mg/mL collagenase IV (Gibco, 17104019) and 2 mg/mL dispase (Gibco, 17105041) in Hank's balanced salt solution (HBSS; Gibco, 24020117) for a total of 30 minutes at 37° C. with an inversion at 15 minutes. After, cell pellet was resuspended in lx ACK lysing buffer (Lonza, 10-548E) to lyse red blood cells. The suspension was filtered through 100 μm nylon mesh and collected for further analysis.
(§8) The cells isolated from the bone marrow and peripheral blood were incubated with Live/Dead Zombie dye (Biolegend) in PBS at room temperature for 15 minutes. After, primary antibodies were diluted in 2% FBS-PBS solution and incubated with cells on ice for 30 minutes. […]

Endothelial cells (EC) = experiment: Flow cytometry of femoral bone marrow, total count/femur: CD31+ endothelial cells (Example 1); assay type: in vivo, mice; details: days 3 to 13 after 300 μg/kg s.c.
Description: In this study, normal male C57BL/6 mice were subcutaneously injected with RWJ-800088 (TPOm) at 300 μg/kg (Day 0). At days 3, 7, 10 and 14, the mice were sacrificed to collect the bone marrow and blood samples.
as §2, §3, §4
as §5, with “Cells were washed again and acquired on Cytek Aurora spectral cytometer. Analysis was done through FlowJo (Tree Star) software.” left out

Long-term HSCs = experiment: Flow cytometry of femoral bone marrow, total count/femur: long-term HSCs (Example 1); assay type: in vivo, mice; details: only by day 13 after treatment
Description: as §1, §2, §3, §4, §5

[2] = test system: Myeloid progenitor cells (MPC); experiment: Flow cytometry of femoral bone marrow, total count/femur: myeloid progenitor cells (Example 1); assay type: in vivo, mice
Description: as §1, §2, §3, §4, §5

[3] = test system: myeloid progenitor cells (MPCs); experiment: Flow cytometry of bone marrow ten days after treatment: MPCs (Example 2); assay type: in vivo, mice; details: ten days after 300 μg/kg s.c.; percentage of CD45- cells
Description: as §6, §7, §8

[4] = test system: hemopoietic stem cells (HSCs); experiment: Flow cytometry of bone marrow ten days after treatment: HSCs (Example 2); assay type: in vivo, mice; details: ten days after 300 μg/kg s.c.; percentage of CD45- cells
Description: as §6, §7, §8

Megakaryocytes = experiment: Histology (H&E) megakaryocyte count in sternal bone marrow of healthy mice after single s.c. dose; assay type: in vivo
Description: as §1
Further, hematopoietic stem and progenitor cell (HSPC) populations in the femoral marrow were examined by flow cytometry (FIG. 2).

[5] = test system: Endothelial progenitor cells (EPC); experiment: Flow cytometry of femoral bone marrow, total count/femur: endothelial progenitor cells (Example 1); assay type: in vivo, mice; details: days 3 to 13 after 300 μg/kg s.c.
Description: as §1
as §7, with “(HB SS) (Gibco,” for “(HBSS; Gibco,”, “After, the” for “After,”, “1X” for “lx”, “70” for “100”
as §3, §4
(§9) Live/Dead Zombie dye (Biolegend) in phosphate-buffered saline (PBS) at room temperature for 15 minutes. After, primary antibodies were diluted in 2% fetal bovine serum (FBS)-PBS solution and incubated with cells on ice for 30 minutes. […]

LSK = experiment: Flow cytometry of femoral bone marrow, total count/femur: LSK cells (Example 1); assay type: in vivo, mice; details: after treatment for 13 days
Description: as §1
as §7, with “(HB SS) (Gibco,” for “(HBSS; Gibco,”, “After, the” for “After,”, “1X” for “lx”, “70” for “100”
as §3, §4, §9

Substance: methoxypolyethyleneglyco120000-propionyl-L-Isoleucyl-L-Glutamyl-Glycyl-L-Prolyl-L-Threonyl-L-Leucyl-L-Arginyl-L-Glutaminyl-L-2-Naphthylalanyl-L-Leucyl-L-Alanyl-L-Alanyl-L-Arginyl-Sarcosyl-Ne-(methoxypolyethyleneglyco120000-propionyl-L-Isoleucyl-L-Glutamyl-Glycyl-L-Prolyl-L-Threonyl-L-Leucyl-L-Arginyl-L-Glutaminyl-L-2-Naphthylalanyl-L-Leucyl-L-Alanyl-L-Alanyl-L-Arginyl-Sarcosyl-)-Lysinamide ({methoxypolyethyleneglycol 20000‑propionyl}-IEGPTLRQ[2Nal]LAAR[Sar]K-NH2; also: dimer: second identical mPEG20000-propionyl-peptide-Sar arm on C-terminal Lys Ne) [RWJ-800088]
- LSK, CD34+ short-term (ST-) HSC population in femoral marrow (Short-term HSCs): significantly increased
- EPC populations in the bone marrow [1]: significant increase
- EC (CD31+) population in femoral marrow, time course (Endothelial cells (EC)): increased beginning on day 3 and was sustained through day 13
- LSK, CD34-, CD48-, CD150+ long-term (LT-) HSCs in femoral marrow (Long-term HSCs): significantly increased
- Myeloid progenitor cells (lineage-, c-kit+) in femoral marrow relative to naive ([2]; day 3 after treatment): significant increases
- Myeloid progenitor cells (lineage-, c-kit+) in femoral marrow ([2]; day 6 after treatment): significant decrease
- Myeloid progenitor cells (lineage-, c-kit+) in femoral marrow ([2]; day 13 after treatment): return to baseline
- MPC population in the bone marrow compartment [3]: increases
- HSC population in the bone marrow compartment [4]: increases
- Number of megakaryocytes in sternal marrow (Megakaryocytes; 13 days after treatment, 300 μg/kg s.c.): dropped down to baseline
- Megakaryocytes in sternal marrow relative to naive animals (Megakaryocytes; days 3 and 6 after 300 μg/kg s.c.): significant increases
- EPC population in femoral marrow, time course [5]: began increasing on day 3 with a peak on day 6
- LSK (lineage-, c-kit+, Sca-1+) population in femoral marrow (LSK): significantly increased
